Assay: Human HepG2 cell viability assay in 384 well format
Assay type: toxicity, cell-based
Parameters: dose 125 nL, time 70.5 hour; concentration not given beside the values
Details: HepG2 cells, read-out: Inhibition

| Structure (SMILES) | cytotoxicity at 70.5 h |
| --- | --- |
| CN(C)C(=O)CN1C[C@H]2CCN(C(=O)c3ccccc3)CC[C@H]2S1(=O)=O | -10.6% |
| CSc1ccccc1CN1C[C@H]2CC[C@@H]1CN(Cc1[nH]cnc1C)C2 | 17.6% |
| Cc1ccc(CCNC(=O)Cn2nc(C)n(Cc3ccccc3)c2=O)o1 | 19.8% |
| CC(C)Nc1nc2c(c(NC3CC3)n1)CN(C(=O)c1ccncc1)CC2 | 32.7% |
| N#Cc1cccc(CS(=O)(=O)NCC(O)Cc2ccccc2)c1 (stereo not drawn) | -0.967% |
| CSCC(=O)NC1(c2cccc(Cl)c2)CC1 | -3.77% |
| Cc1ncc2c(n1)CCN(Cc1nc3ccccc3o1)C2 | 0.854% |
| O=C(CC1CC1)NC[C@]12COC[C@H]1CN(c1ncc(F)cn1)C2 | -2.2% |
| Cc1nc(CNC2CCc3nc(C(C)C)nn3C2)oc1C (stereo not drawn) | -4.84% |
| CNC(=O)CN1CC[C@H]2CN(C(=O)c3ccccc3C)C[C@H]2C1 | -3.61% |
| CN(C)S(=O)(=O)N1C[C@H]2CCC[C@@]2(COCc2cccnc2)C1 | -6.86% |
| CC(C)CCN1C2(CCN(C(=O)N(C)C)C2)c2ccccc2S1(=O)=O (stereo not drawn) | -17.2% |
| Cc1ncoc1C(=O)N1CCn2c(COCC3CC3)cnc2C1C (stereo not drawn) | 10.1% |
| CCN1CCC(=O)N(C)Cc2cc(F)ccc21 | -8.5% |
| CN(Cc1cc(-c2ccccc2)no1)C(=O)CNS(C)(=O)=O | 23.3% |
| CCn1cc(S(=O)(=O)N2CCCC2c2ccc(C)o2)cn1 (stereo not drawn) | 2.79% |
| Cc1ccsc1CN(C)c1cc(N2CCOCC2)ncn1 | -2.06% |
| Cc1cnn(CC(=O)N2CCCN(Cc3cnn(C(C)C)c3)CC2)c1 | -0.435% |
| Cc1noc(C)c1CC(=O)NCC(C(C)C)N1CCOCC1 (stereo not drawn) | -10.6% |
| O=S(=O)(C1CC1)N1CCOC2(CCCN(c3ccccc3)C2)C1 (stereo not drawn) | 7.04% |
| Cn1ccc(NC(=O)CN2C[C@H]3CC[C@@H]2CN(Cc2ccccn2)C3)n1 | -3.7% |
| Cc1cc(N2CCOC(C)(C(=O)N(C)C)C2)ncn1 (stereo not drawn) | -6.62% |
| Cc1nc(CN2CCN(C(=O)CCC(=O)c3ccccc3)CC2)no1 | 12.6% |

| Structure (SMILES) | cytotoxicity at 70.5 h |
| --- | --- |
| c1ccc(-c2cc(CNCCN3CCOCC3)c3nnnn3c2)cc1 | -0.928% |
| CCN(CC)S(=O)(=O)NCC1COc2ccccc2O1 (stereo not drawn) | 24.9% |
| Cn1cccc1C(=O)N1C[C@H]2CN(Cc3cccnc3)C[C@H]2C1 | -1.49% |
| CN(Cc1ccsc1)C(=O)c1cc2c([nH]c1=O)CCCC2=O | -12.8% |
| Cn1cc(-c2csc(N3CCOCC3)n2)cn1 | -3.47% |
| CC(=O)N(Cc1noc(C2CC2)n1)C1CCN(Cc2cccnc2)C1 (stereo not drawn) | -9.51% |
| CNc1[nH]nc(N)c1NC(=O)c1ccccc1 | -17.7% |
| c1ccc(-n2ncc(CNCC3CCCN3c3cccnn3)n2)cc1 (stereo not drawn) | 5.2% |
| CCc1ncncc1C(=O)N1CCN(Cc2cscn2)CC1 | -3.97% |
| CN1CCC(NC(=O)c2cc(F)cc(Cl)c2O)C1=O (stereo not drawn) | -2.94% |
| OC1CCCOC12CCN(c1ncccn1)CC2 (stereo not drawn) | 15.7% |
| COc1ccc(Cl)cc1C(=O)N1C[C@@H](NC(=O)N(C)C)[C@H](C(C)C)C1 | -10.5% |
| Cc1ccc(C(=O)NS(=O)(=O)c2cccc3cnccc23)c(=O)[nH]1 | -6.04% |
| CS(=O)(=O)N1C[C@@H]2OCC(=O)N(CC3CCC3)[C@@H]2C1 | -6.88% |
| COc1ccc(OC)c(-n2cnnc2CN)c1 | -2.21% |
| O=C1CC2(CCCC2)CC(=O)N1CCn1cnnc1 | -8.05% |
| CC(C)n1ncc2cc(NC(=O)N3CCC(C(N)=O)C3)cnc21 (stereo not drawn) | 16.7% |
| CCOc1ccccc1OC1CCN(C(=O)c2csnn2)CC1 | -5.03% |
| Cc1ccc2c(n1)N(Cc1cccnc1)CCN(Cc1cnn(C)c1)C2 | -2.59% |
| O=C(Nc1nncs1)C1CSCN1C(=O)C1CCCC1 (stereo not drawn) | -3.88% |
| O=C(Cc1ccc(O)c(F)c1)N1CCN(CC2CC2)[C@@H]2CS(=O)(=O)C[C@@H]21 | -6.03% |
| O=C(O)c1cc2c(nc1-c1ccsc1)CCN(C(=O)C1CC1)CC2 | -7.32% |
| COC(=O)CC(c1ccc(OC)c(OC)c1OC)c1c(O)n[nH]c1C (stereo not drawn) | -15.1% |

| Structure (SMILES) | cytotoxicity at 70.5 h |
| --- | --- |
| Cc1ncc(CN(C)CC(O)c2ccc(Br)cc2)s1 (stereo not drawn) | -12% |
| OC1(CNCCc2csc(-c3ccncc3)n2)CCCNC1 (stereo not drawn) | -5.37% |
| Cc1oncc1C(=O)N1CCC2(CC1)CN(S(C)(=O)=O)c1ccccc12 | -3.56% |
| N#Cc1cccnc1N1CCC(c2nc(C(F)(F)F)c[nH]2)CC1 | -15.7% |
| COc1ccc2c(c1)C1(CCN(Cc3ccoc3)CC1)N(C)CC2 | -5.64% |
| Cn1cc(C2CCCN2C(=O)c2ccc(OCC3CC3)nc2)cn1 (stereo not drawn) | -4.15% |
| CC(=O)C(Cc1ccccc1)NC(=O)CSc1nccn1C1CC1 (stereo not drawn) | -0.98% |
| COCc1ccc(CN2CCC(O)(Cn3ccc4ncccc43)CC2)o1 | -8.64% |
| COc1cccc(C2CCCN2C(=O)c2cc3c([nH]c2=O)CCC3)c1 (stereo not drawn) | -2.15% |
| O=C(NCc1ccco1)[C@@H]1CCO[C@@H]2CCN(c3ncccn3)C[C@H]21 | -3.72% |
| c1ccc(CN2CCCn3nnc(COc4ccccn4)c3C2)nc1 | -11.2% |
| CC(CO)CN(Cc1ccccc1)C(=O)c1csc(CN(C)C)n1 (stereo not drawn) | -3.43% |
| CCN(CC)CC1CN(Cc2c(C)noc2C)Cc2nccn2C1 (stereo not drawn) | -4.28% |
| COCCN(C)Cc1cc(Cl)ccc1OCC(O)CN1CCCCCC1 (stereo not drawn) | -11.6% |
| CCc1ncc(CN2CCCC3(CCC(=O)N(CCC(C)C)C3)C2)cn1 (stereo not drawn) | 1.46% |
| COCCNc1nc(N2CCCC2)nc2nccnc12 | 26.5% |
| CN1CCCc2cc(CNC(=O)c3ccncc3)ccc21 | 33.4% |
| CC(C)(C)n1ncc(NCc2ccccc2)c(Cl)c1=O | 22.2% |
| Cc1nn(C)c(N(C)C)c1CNCc1ccc(OCCN(C)C)cc1 | 22.3% |
| CCCN1C[C@H](NC(=O)c2cccs2)[C@@H](c2ccc(OC)cc2)C1 | 0.254% |
| CCS(=O)(=O)NC(CCSC)C(=O)Nc1ccc(C)cc1C (stereo not drawn) | -88.5% |
| CC(C)Oc1ncccc1CNC(=O)c1cnccn1 | -5.94% |
| CC(C)CCN1CN=C(NS(=O)(=O)c2ccc(F)cc2)NC1 | -8.69% |

| Structure (SMILES) | cytotoxicity at 70.5 h |
| --- | --- |
| N[C@@H]1CC[C@H](C(=O)NCCc2nc(-c3ccccc3)cs2)C1 | -1.72% |
| CN(C(=O)NCc1nccn1Cc1ccccc1)C1CC1 | 9.16% |
| CCC(=O)N(CC)C(c1cccnc1)c1ccc2c(c1)CCO2 (stereo not drawn) | -2.76% |
| O=C(NCC(=O)N1CCCC1)c1nn(-c2ccccc2F)cc1O | 3.63% |
| Cc1ncsc1-c1nnc(C2CCN(Cc3ccccc3F)CC2)o1 | -0.587% |
| O=C(N1CCOCC1)[C@@]12CCO[C@@H]1CCN(C1CCCCC1)C2 | 47.3% |
| CO[C@H]1CN(S(=O)(=O)c2ccc(F)cc2)C[C@@]12CCCO2 | 36.6% |
| Cn1ccnc1CN1CCN2C[C@H](Oc3cncnc3)C[C@H]2C1 | 0.558% |
| CN(C)CCN(Cc1ccc(Cl)cc1)C(=O)c1ccn(C)c(=O)c1 | -5.83% |
| CC(C)N1CCC(c2cnc(-c3cn[nH]c3)cn2)CC1 | 2.32% |
| CN(Cc1cnn(C)c1)S(=O)(=O)N1CCCC1c1ccco1 (stereo not drawn) | -0.954% |
| Cn1ccnc1CN1CCN(c2ncnc3ccsc23)CC1 | -0.211% |
| CC(=O)NCC(=O)N1CCCC1c1ccc(CN2CCOCC2)cn1 (stereo not drawn) | -4.76% |
| OC[C@@H]1CCCN1c1ccc(-c2nc(COc3ccccc3)no2)cn1 | 1.55% |
| c1cc(CN2CCc3ncc(CN4CCOCC4)n3CC2)cs1 | 16.8% |
| CCOc1ccc(C(=O)N2CCCC2c2c(C)nn(C)c2OC)cn1 (stereo not drawn) | -4.47% |
| CCCN(Cc1ccc(OC)nc1)Cc1ccccc1OC | 12.5% |
| Cc1nn(C)c(C)c1CNC1CCOc2ccccc21 (stereo not drawn) | -8.58% |
| CN(C)CCOCC1CN(CC2CCOCC2)Cc2nnn(C)c21 (stereo not drawn) | -6.51% |
| CN(C)CC(Nc1nc(N)nc2c1CCNCC2)c1ccccc1 (stereo not drawn) | -18.8% |
| OC1(CN2CCC(Cc3ccccc3)CC2)CCC1 | -4.49% |
| COC(=O)c1cccn1C1CCN(Cc2nc3ccccc3o2)CC1 | -3.04% |
| Cc1nc(CN2CC[C@@H]3[C@@H](CCC(=O)N3CCc3c[nH]cn3)C2)co1 | 13% |

| Structure (SMILES) | cytotoxicity at 70.5 h |
| --- | --- |
| Fc1ccc(OCCNC2CCN(Cc3ccncc3)CC2)c(F)c1 | 12.1% |
| CC(=O)N1CCC2(CCCN(Cc3ccc(Cl)c(C(F)(F)F)c3)C2)C1 (stereo not drawn) | -5.25% |
| N#Cc1ccccc1C(=O)NCCC1CN(Cc2ccco2)CCO1 (stereo not drawn) | 2.72% |
| CC(C)N(C(=O)CN(C)C1CCc2ccccc21)C(C)C (stereo not drawn) | -0.805% |
| Cc1ccc(CNC(=O)Nc2cc(C(F)(F)F)c[nH]c2=O)cn1 | -0.26% |
| C=C(C)COc1ccccc1CNCCc1cc(O)nc(C)n1 | -2.32% |
| CCC1CCCCN1S(=O)(=O)c1c(C)noc1C (stereo not drawn) | -7.69% |
| CN(Cc1cccc2ncccc12)C(=O)CCC(F)(F)F | 27.3% |
| O=C(O)C1(n2ccc(-c3ccco3)n2)CCN(Cc2cccs2)CC1 | 17.7% |
| O=c1[nH]c(CCN2CCCC2Cn2cccn2)nc2ccccc12 (stereo not drawn) | -9.61% |
| Cc1nc(CN2CCCC(NCCCc3ccccc3)C2)no1 (stereo not drawn) | -10.6% |
| CCC(=O)Nc1cccc(OCC(=O)N[C@@H]2C[C@H]3CC[C@@H]2C3)c1 | -22.4% |
| CCNC(c1ccc(C(C)C)cc1)c1cccnc1 (stereo not drawn) | 2.26% |
| Cc1cnn(CC(=O)NCC2(O)CCCc3ccccc32)c1 (stereo not drawn) | 2.95% |
| CC(C)N1CCO[C@H]2CN(C(=O)Cc3cccs3)C[C@H]21 | -3.28% |
| CN1CCOC(C(=O)Nc2nc(-c3ccc(Cl)cc3)n[nH]2)C1 (stereo not drawn) | 4.4% |
| COCCNC(=O)c1cc(OC)c2ccoc2c1 | -1.33% |
| CCc1c(C)sc2ncnc(N3CCN(C4CCOCC4)CC3)c12 | -11.1% |
| COc1ccc(C(C(=O)O)N(C)CCN2CCCC2)cc1F (stereo not drawn) | -9.88% |
| CN(Cc1noc2c1CCCC2)C(=O)CN1C(=O)CSc2ccccc21 | 3.41% |
| CN(C)CCN1CC(C(=O)NCc2cn3cccnc3n2)CC1=O (stereo not drawn) | -5.17% |
